Results reported in ChEMBL document CHEMBL5131512, “Novel niclosamide-derived adjuvants elevating the efficacy of polymyxin B against MDR Pseudomonas aeruginosa DK2” (Eur J Med Chem, 2022).
≈ marks a conversion by molar mass, not a printed value. Calls of active or inactive are those of the source. No cut-off for these calls is given here. Bridge positions count the residues as written; N and C are the ends. Square brackets hold non-standard residues; d marks the D form. Peptide text beside a SMILES is read from it. * marks the point of attachment. X1 = CC[C@H](C)CCCCC(=O)*; Dab = NCC[C@H](N)C(=O)O

Legend:
Pseudomonas aeruginosa [1] = assay: Antimicrobial activity against clinical isolate CF333-2007 Pseudomonas aeruginosa DK2 measured after 18 hrs by microbroth dilution assay; assay type: functional
Pseudomonas aeruginosa [2] = assay: Antimicrobial activity against clinical isolate CF333-2007 Pseudomonas aeruginosa DK2 assessed as polymyxin B MIC measured after 18 hrs by microbroth dilution assay; assay type: functional
Pseudomonas aeruginosa [3] = assay: Antimicrobial activity against clinical isolate CF333-2007 Pseudomonas aeruginosa DK2 measured after 18 hrs in presence of polymyxin B by microbroth dilution assay; assay type: functional
Pseudomonas aeruginosa [4] = assay: Synergistic antibacterial activity against clinical isolate CF333-2007 Pseudomonas aeruginosa DK2 assessed as fractional inhibitory concentration index incubated for 18 hrs in presence of Polymyxin B; assay type: functional
Pseudomonas aeruginosa [5] = assay: Suppression of polymyxin drug resistance development against pseudomonas aeruginosa DK2 at 4 ug/ml in presence of polymyxin B after repeated passaging for 14 days; assay type: functional; conditions: dose 4 µg/ml; time 14 day
[6] = Acute toxicity in ICR mouse assessed as effect on liver at 50 mg/kg, ip administered as single dose measured after 7 days; assay type: organism-based; conditions: in vivo, 168 h, time 7 day
Pseudomonas aeruginosa [7] = assay: Inhibition of PA3552-lux expression in Pseudomonas aeruginosa DK2 at 1 ug/ml measured after 5 to 8 hrs by microplate reader assay; assay type: functional; conditions: dose 1.0 µg/ml, time 5-8 hrs
[8] = Acute toxicity in ICR mouse assessed as mortality at 50 mg/kg, ip administered as single dose measured after 2 hrs; assay type: organism-based; conditions: in vivo, read-out: Activity
Pseudomonas aeruginosa [9] = assay: Antibacterial activity against Pseudomonas aeruginosa PAO1 assessed as reduction in bacterial growth at 2 ug/ml measured after 24 hrs in presence of polymyxin B by time kill assay; assay type: functional; conditions: dose 2 µg/ml
Pseudomonas aeruginosa [10] = assay: Synergistic antibacterial activity against Pseudomonas aeruginosa PAO1 infected in Caenorhabditis elegans N2 worms assessed as worms survival at 4 to 8 ug/ml in presence of polymyxin B; assay type: functional; conditions: dose 4-8 µg/ml; at 4 to 8 µg/mL
[11] = Acute toxicity in ICR mouse assessed as effect on lungs at 50 mg/kg, ip administered as single dose measured after 7 days; assay type: organism-based, Lung; conditions: in vivo, 168 h, time 7 day
Pseudomonas aeruginosa [12] = assay: Synergistic inhibition of PA3552-lux expression in Pseudomonas aeruginosa DK2 at 1 ug/ml measured after 5 to 8 hrs in presence of polymyxin B by microplate reader assay; assay type: functional, organism-based; conditions: dose 1.0 µg/ml, time 5-8 hrs
[13] = Acute toxicity in ICR mouse assessed as effect on body weight at 50 mg/kg, ip administered as single dose measured daily for 7 days; assay type: organism-based; conditions: in vivo, 168 h, time 7 day
Klebsiella pneumoniae [14] = assay: Synergistic antibacterial activity against Klebsiella pneumoniae 674 assessed as polymyxin MIC at 8 ug/ml; assay type: functional; conditions: dose 8 µg/ml
Acinetobacter baumannii = assay: Synergistic antibacterial activity against Acinetobacter baumannii 186 assessed as fold decrease in polymyxin MIC at 8 ug/ml; assay type: functional; conditions: dose 8 µg/ml
[15] = Acute toxicity in ICR mouse assessed as effect on heart at 50 mg/kg, ip administered as single dose measured after 7 days; assay type: organism-based; conditions: in vivo, 168 h, time 7 day
Escherichia coli [16] = assay: Synergistic antibacterial activity against Escherichia coli 15017 assessed as polymyxin MIC at 8 ug/ml; assay type: functional; conditions: dose 8 µg/ml
Pseudomonas aeruginosa [17] = assay: Antibacterial activity against Pseudomonas aeruginosa PAO1 infected in Caenorhabditis elegans N2 worms assessed as colonization of bacteria on intestinal tract at 8 ug/ml in presence of polymyxin B; assay type: functional, organism-based; conditions: dose 8.0 µg/ml
[18] = Acute toxicity in ICR mouse assessed as mortality at 50 mg/kg, ip administered as single dose; assay type: organism-based; conditions: in vivo
Pseudomonas aeruginosa [19] = assay: Antibacterial activity against Pseudomonas aeruginosa DK2 assessed as reduction in bacterial growth at 4 ug/ml measured after 24 hrs in presence […] of polymyxin B by time kill assay; assay type: functional; conditions: dose 4 µg/ml
[20] = Acute toxicity in ICR mouse assessed as effect on spleen at 50 mg/kg, ip administered as single dose measured after 7 days; assay type: organism-based; conditions: in vivo, 168 h, time 7 day
[21] = Acute toxicity in ICR mouse assessed as effect on kidney at 50 mg/kg, ip administered as single dose measured after 7 days; assay type: organism-based; conditions: in vivo, 168 h, time 7 day
Klebsiella pneumoniae [22] = assay: Synergistic antibacterial activity against Klebsiella pneumoniae 674 assessed as fold decrease in polymyxin MIC at 8 ug/ml; assay type: functional; conditions: dose 8 µg/ml
Escherichia coli [23] = assay: Synergistic antibacterial activity against Escherichia coli 15017 assessed as fold decrease in polymyxin MIC at 8 ug/ml; assay type: functional; conditions: dose 8 µg/ml
Pseudomonas aeruginosa [24] = assay: Antibacterial activity against Pseudomonas aeruginosa DK2 assessed as reduction in bacterial growth at 0.5 ug/ml measured after 24 hrs by time kill assay; assay type: functional; conditions: dose 0.5 µg/ml
Pseudomonas aeruginosa [25] = assay: Antibacterial activity against Pseudomonas aeruginosa PAO1 infected in Caenorhabditis elegans N2 worms at 16 ug/ml; assay type: functional, organism-based; conditions: dose 16.0 µg/ml
Pseudomonas aeruginosa [26] = assay: Drug resistance against pseudomonas aeruginosa DK2 assessed as fold increase in MIC measured after repeated passaging for 14 days; assay type: functional; conditions: time 14 day
Pseudomonas aeruginosa [27] = assay: Drug resistance against pseudomonas aeruginosa DK2 assessed as increase in MIC measured after repeated passaging for 14 days; assay type: functional; conditions: DK2, 336 h, time 14 day

MIC (Pseudomonas aeruginosa [1]) [µg/mL] | MIC (Pseudomonas aeruginosa [2]) [µg/mL] | MIC (Pseudomonas aeruginosa [3]) [µg/mL] | Compound | fractional inhibitory concentration index (FICI) (Pseudomonas aeruginosa [4]) | also measured
> 1020 | – | – | O=C(Nc1ccc(O)cc1Cl)c1ccc(Br)cc1O | – | –
> 1020 | 4 | 16 | O=C(Nc1cc(Cl)ccc1O)c1ccc([N+](=O)[O-])cc1Cl | 0.031 | –
> 1020 | > 32 | > 32 | O=C(Nc1ccc(O[C@H]2O[C@H](CO)[C@H](O)[C@H](O)[C@H]2O)cc1Cl)c1cc(Cl)ccc1O | – | –
> 1020 | 2 | 16 | O=C(Nc1ccc([N+](=O)[O-])cc1Cl)c1cc(C(F)(F)F)ccc1O | 0.023 | –
– | 2 | 2 | O=C(Nc1ccc([N+](=O)[O-])cc1Cl)c1cc(Cl)ccc1O [NICLOSAMIDE] | 0.01 | –
> 1020 | – | – | CC(=O)N1CCc2cc(NC(=O)c3cc(F)ccc3O)ccc21 | – | –
> 1020 | – | – | O=C(Nc1ccc(O)cc1Cl)c1cc(F)ccc1O | – | –
> 1020 | – | – | O=C(Nc1ccc(S(=O)(=O)N2CCOCC2)cc1)c1cc(F)ccc1O | – | –
– | 8 | 16 | O=C(Oc1ccc([N+](=O)[O-])cc1Cl)c1cc(Cl)ccc1O | 0.141 | –
– | 1 | 32 | O=C(Nc1ccc([N+](=O)[O-])cc1Cl)c1cccc(F)c1O | 0.129 | –
– | 1 | 16 | O=C(Nc1ccc([N+](=O)[O-])cc1Cl)c1ccc(F)cc1O | 0.066 | –
> 1020 | > 32 | > 32 | O=C(O)c1ccc(NC(=O)c2cc(Cl)ccc2O)c(Cl)c1 | – | –
> 1020 | 2 | 2 | O=C(Nc1ccc([N+](=O)[O-])cc1Cl)c1ccccc1O | 0.01 | –
> 1020 | > 32 | > 32 | O=C(Nc1ccc([N+](=O)[O-])cc1Cl)c1ccc(O)cc1O | – | –
> 1020 | 8 | 16 | Nc1ccc(NC(=O)c2cc(Cl)ccc2O)c(Cl)c1 | 0.047 | –
– | 4 | 4 | O=C(Nc1ccc([N+](=O)[O-])cc1O)c1cc(Cl)ccc1O | 0.078 | –
> 1020 | 1 | 8 | O=C(Nc1ccc([N+](=O)[O-])cc1Cl)c1ccc(Br)cc1O | 0.012 | –
> 1020 | 2 | 4 | O=C(Nc1ccccc1Cl)c1cc(Cl)ccc1O | 0.012 | –

MIC (Pseudomonas aeruginosa [1]) [µg/mL] | MIC (Pseudomonas aeruginosa [2]) [µg/mL] | MIC (Pseudomonas aeruginosa [3]) [µg/mL] | Compound | fractional inhibitory concentration index (FICI) (Pseudomonas aeruginosa [4]) | also measured
> 1020 | > 32 | > 32 | O=C(Nc1ccc(S)cc1)c1cc(Cl)ccc1O | – | –
> 1020 | 4 | 8 | COc1ccc(O)c(C(=O)Nc2ccc([N+](=O)[O-])cc2Cl)c1 | 0.023 | –
> 1020 | 4 | 1 | Cc1ccc(O)c(C(=O)Nc2ccc([N+](=O)[O-])cc2Cl)c1 | 0.017 | –
– | 4 | 32 | O=C(Nc1ccc(O)cc1Cl)c1cc(Cl)ccc1O | 0.141 | –
> 1020 | > 32 | > 32 | O=C(Nc1ccc([N+](=O)[O-])cc1Cl)c1cc(O)ccc1O | – | –
> 1020 | 1 | 32 | O=C(Nc1ccc([N+](=O)[O-])cc1Cl)c1cc(Br)ccc1O | 0.066 | –
– | 1 | 16 | O=C(Nc1ccc([N+](=O)[O-])cc1Cl)c1cccc(Br)c1O | 0.254 | –
> 1020 | – | – | O=C(Nc1ccc(N2CCOCC2=O)cc1)c1cc(F)ccc1O | – | –
> 1020 | > 32 | > 32 | O=C(Nc1cccnc1)c1cc(Cl)ccc1O | – | –
> 1020 | > 32 | > 32 | O=C(Nc1ccc([N+](=O)[O-])cc1Cl)c1cccc(Cl)c1 | – | –
> 1020 | > 32 | > 32 | O=C(Nc1ccc([N+](=O)[O-])cc1Cl)c1ccncc1 | – | –
> 1020 | 1 | 8 | O=C(Nc1ccc([N+](=O)[O-])cc1Cl)c1cc(F)c(F)cc1O | 0.012 | –
> 1020 | – | – | O=C(Nc1ccc2[nH]c(=O)sc2c1)c1cc(F)ccc1O | – | –
> 1020 | 16 | 16 | O=C(Nc1ccc([N+](=O)[O-])cc1Cl)c1cc(Cl)ccc1OC(=O)[C@@H]1CCCN1 | 0.078 | –
> 1020 | 2 | 4 | O=C(Nc1ccccc1)c1cc(Cl)ccc1O | 0.012 | –
> 1020 | 16 | 32 | O=C(Nc1ccc([N+](=O)[O-])cc1Cl)c1cc(Cl)ccc1O[C@H]1O[C@H](CO)[C@H](O)[C@H](O)[C@H]1O | 0.094 | –
> 1020 | > 32 | > 32 | O=C(Nc1ccc([N+](=O)[O-])cc1Cl)c1ccccc1 | – | –

Compound | MIC (Pseudomonas aeruginosa [1]) [µg/mL] | MIC (Pseudomonas aeruginosa [2]) [µg/mL] | MIC (Pseudomonas aeruginosa [3]) [µg/mL] | fractional inhibitory concentration index (FICI) (Pseudomonas aeruginosa [4]) | also measured
O=C(Nc1ccc([N+](=O)[O-])cc1Cl)c1cc(F)ccc1O | > 1020 | 1 | 4 | 0.008 | Activity (Pseudomonas aeruginosa [5]): 100%; Activity [6]: Non-Toxic; inhibition (Pseudomonas aeruginosa [7]): Active; mortality at 2 h [8]: 80%; Activity (Pseudomonas aeruginosa [9]): >5 log10CFU/ml; Survival (Pseudomonas aeruginosa [10]): 7.31%; Activity [11]: Non-Toxic; inhibition (Pseudomonas aeruginosa [12]): Active; Activity [13]: Non-Toxic; MIC (Klebsiella pneumoniae [14]): 1 µg/mL; fold change (FC) (Acinetobacter baumannii): 16; Activity [15]: Non-Toxic; MIC (Escherichia coli [16]): 0.25 µg/mL; Activity (Pseudomonas aeruginosa [17]): Active; Activity [18]: Non-Toxic; Activity (Pseudomonas aeruginosa [19]): 2.88 log10CFU/ml; Activity [20]: Non-Toxic; Activity [21]: Non-Toxic; fold change (FC) (Klebsiella pneumoniae [22]): 256; fold change (FC) (Escherichia coli [23]): 16
CC[C@H](C)CCCCC(=O)N[C@@H](CCN)C(=O)N[C@H](C(=O)N[C@@H](CCN)C(=O)N[C@H]1CCNC(=O)[C@H]([C@@H](C)O)NC(=O)[C@H](CCN)NC(=O)[C@H](CCN)NC(=O)[C@H](CC(C)C)NC(=O)[C@@H](Cc2ccccc2)NC(=O)[C@H](CCN)NC1=O)[C@@H](C)O (X1-[Dab]T[Dab][Dab][Dab][dF]L[Dab][Dab]T; lactam 4-C) | 256 (≈ 0.213 mM) | – | – | – | Activity (Pseudomonas aeruginosa [24]): 6.38 log10CFU/ml; Activity (Pseudomonas aeruginosa [25]): Active; fold change (FC) (Pseudomonas aeruginosa [26]): 32; MIC (Pseudomonas aeruginosa [27]): 8190 µg/mL
